Data reported in the Deep4Chem optical property database.
One block for each compound: values may come before it.

Experiment: solvent given as SMILES

Structure (SMILES): CCN(CC)c1ccc(-c2cc3c(s2)c(C(=O)OC)cc(=O)n3C)cc1
- absorption maximum (in C1CCOC1): 436 nm
- absorption maximum (in CC#N): 436 nm
- absorption maximum (in CCO): 444 nm
- absorption maximum (in CO): 444 nm
- absorption maximum (in CS(C)=O): 446 nm
- absorption maximum (in Cc1ccccc1): 434 nm

Structure (SMILES): O=c1[nH]c(=O)n([C@@H]2O[C@H](CO)[C@@H](O)[C@H]2O)cc1-c1cc2ccccc2s1
- absorption maximum (in C1COCCO1): 322 nm
- absorption maximum (in CC#N): 321 nm
- absorption maximum (in CO): 321 nm
- absorption maximum (in O): 318 nm

Structure (SMILES): c1ccc(-c2ccc(-c3ccc(-n4c5ccccc5c5ccccc54)cc3)c3nsnc23)cc1
- absorption maximum (in C1CCOC1): 394 nm
- absorption maximum (in CC(C)=O): 382 nm
- absorption maximum (in CCCCCC): 394 nm
- absorption maximum (in CCOCC): 392 nm

Structure (SMILES): COc1ccc2n1[B-](F)(F)[N+]1=C(SC#N)C=CC1=C2c1ccccc1
- absorption maximum (in CC#N): 474 nm
- absorption maximum (in CCCCCC): 517 nm
- absorption maximum (in CCOC(C)=O): 506 nm
- absorption maximum (in CO): 480 nm
- absorption maximum (in ClCCl): 508 nm

Structure (SMILES): F[B-]1(F)n2c(c3cccc4cccc2c43)=Nc2cccc(Cl)[n+]21
- absorption maximum (in C1CCOC1): 476 nm
- absorption maximum (in CC#N): 470 nm
- absorption maximum (in CCCCCC): 481 nm
- absorption maximum (in Cc1ccccc1): 481 nm
- absorption maximum (in ClCCl): 447 nm

Structure (SMILES): CC1=CC(C)=[N+]2C1=C(c1ccc(-c3ccc(OS(=O)(=O)c4ccc([N+](=O)[O-])cc4[N+](=O)[O-])cc3)s1)c1c(C)cc(C)n1[B-]2(F)F
- absorption maximum (in CO): 512 nm
- absorption maximum (in Cc1ccccc1): 518 nm
- absorption maximum (in ClCCl): 515 nm

Structure (SMILES): F[B-]1(F)n2cccc2C(c2c3ccccc3c(-c3ccccc3)c3ccccc23)=C2C=CC=[N+]21
- absorption maximum (in CC#N): 502 nm
- absorption maximum (in CCCCCC): 509 nm
- absorption maximum (in CCO): 504 nm
- absorption maximum (in CN(C)C=O): 506 nm
- absorption maximum (in Cc1ccccc1): 509 nm
- absorption maximum (in ClCCl): 506 nm

Structure (SMILES): Nc1cccc2cccc(N)c12
- absorption maximum (in CC#N): 349 nm
- absorption maximum (in CO): 334 nm
- absorption maximum (in CS(C)=O): 354 nm
- absorption maximum (in Cc1ccccc1): 334 nm

Structure (SMILES): COc1ccc(C2=[N+]3C(=Nc4c(-c5ccccc5-c5ccc(C(C)(C)C)cc5)cc(-c5ccc(OC)cc5)n4[B-]3(F)F)c3c2c2cc(C(C)(C)C)ccc2c2ccccc32)cc1
- absorption maximum (in Cc1ccccc1): 701 nm

Structure (SMILES): Cc1ccc(N2C(c3ccccc3[NH-])=[NH+]C(c3ccccc3)C2c2ccccc2)cc1 (stereo not drawn)
- absorption maximum (in Cc1ccccc1): 328 nm

Structure (SMILES): CC(C)[Si](C#Cc1c2ccc(C(C)(C)C)cc2c(C#Cc2c3ccc(C(C)(C)C)cc3c(C#C[Si](C(C)C)(C(C)C)C(C)C)c3ccc(C(C)(C)C)cc23)c2ccc(C(C)(C)C)cc12)(C(C)C)C(C)C
- absorption maximum (in Cc1ccccc1): 523 nm

Structure (SMILES): CCN(CC)c1ccc(OC)c(C=O)c1
- absorption maximum (in CC#N): 412 nm
- absorption maximum (in CC(C)O): 418 nm
- absorption maximum (in CCCCCC): 400 nm
- absorption maximum (in CCOC(C)=O): 406 nm
- absorption maximum (in CO): 420 nm
- absorption maximum (in CS(C)=O): 424 nm
- absorption maximum (in Cc1ccccc1): 411 nm
- absorption maximum (in ClCCl): 415 nm

Structure (SMILES): COc1ccc(N(c2ccc(C=C(c3ccccc3)c3ccccc3)cc2)c2ccc(OC)cc2)cc1
- absorption maximum (in Cc1ccccc1): 376 nm

Structure (SMILES): N#Cc1cc(N2c3ccccc3Sc3ccccc32)c(N2c3ccccc3Sc3ccccc32)cc1C#N
- absorption maximum (in c1ccc2c(c1)c1ccccc1n2-c1ccc(-c2ccc(-n3c4ccccc4c4ccccc43)cc2)cc1): 551 nm

Structure (SMILES): CCC1(CC)c2cc(/C=C/c3ccc(N(c4ccccc4)c4ccccc4)cc3)ccc2-c2ccc(/C=C/c3ccc(N(c4ccccc4)c4ccccc4)cc3)cc21
- absorption maximum (in Cc1ccccc1): 412 nm

Structure (SMILES): CN(C)c1ccc(/C=C/C=C2\CC/C(=C\C=C\c3ccc(N(C)C)cc3)C2=O)cc1
- absorption maximum (in C1CCCCC1): 480 nm
- absorption maximum (in CC#N): 490 nm
- absorption maximum (in CC(C)=O): 493 nm
- absorption maximum (in CC(C)O): 515 nm
- absorption maximum (in CCCCCC): 478 nm
- absorption maximum (in CCCCO): 524 nm
- absorption maximum (in CCCO): 515 nm
- absorption maximum (in CCO): 510 nm
- absorption maximum (in CCOC(C)=O): 480 nm
- absorption maximum (in CCOCC): 475 nm
- absorption maximum (in CN(C)C=O): 507 nm
- absorption maximum (in CO): 523 nm
- absorption maximum (in CS(C)=O): 512 nm
- absorption maximum (in Cc1ccccc1): 495 nm
- absorption maximum (in ClC(Cl)(Cl)Cl): 465 nm
- absorption maximum (in ClCCl): 503 nm
- absorption maximum (in OCC(F)(F)F): 534 nm
- absorption maximum (in S=C=S): 480 nm
- absorption maximum (in c1ccccc1): 475 nm
- absorption maximum (in c1ccncc1): 507 nm

Structure (SMILES): OC1(c2ccc(-c3cccs3)s2)CCC(c2ccccc2)CC1 (stereo not drawn)
- absorption maximum (in C1CCOC1): 313 nm
- absorption maximum (in CC#N): 309 nm
- absorption maximum (in CCCCCC): 307 nm
- absorption maximum (in CCO): 309 nm
- absorption maximum (in OCCOCCO): 311 nm
- absorption maximum (in c1ccncc1): 314 nm

Structure (SMILES): ClC1=CN2C[n+]3cc(Cl)ccc3N=C2C=C1
- absorption maximum (in CO): 433 nm

Structure (SMILES): O=C1c2ccccc2C(=O)c2cc(-c3ccc(N(c4ccccc4)c4ccccc4)cc3)ccc21
- absorption maximum (in C1CCOC1): 447 nm
- absorption maximum (in CCCCCC): 442 nm
- absorption maximum (in CCOC(C)=O): 446 nm
- absorption maximum (in CCOCC): 443 nm
- absorption maximum (in Cc1ccccc1): 454 nm
- absorption maximum (in ClC(Cl)(Cl)Cl): 457 nm
- absorption maximum (in ClCCl): 459 nm

Structure (SMILES): CCCCCCCC(=O)Oc1ccc2c3cccc4c(OC(=O)CCCCCCC)ccc(c5cccc1c52)c43
- absorption maximum (in C1CCOC1): 445 nm
- absorption maximum (in Cc1ccccc1): 448 nm
- absorption maximum (in ClC(Cl)(Cl)Cl): 448 nm
- absorption maximum (in ClC(Cl)Cl): 446 nm
- absorption maximum (in ClCCl): 445 nm
- absorption maximum (in c1ccncc1): 449 nm

Structure (SMILES): COC1=C/C(=C\C=C2C=CN(Cc3ccc(Br)cc3)C=C2)C=CC1=O
- absorption maximum (in CC#N): 617 nm
- absorption maximum (in CC(C)=O): 624 nm
- absorption maximum (in CC(C)CO): 576 nm
- absorption maximum (in CC(C)O): 585 nm
- absorption maximum (in CCC#N): 620 nm
- absorption maximum (in CCCCCCO): 584 nm
- absorption maximum (in CCCCCO): 588 nm
- absorption maximum (in CCCCO): 576 nm
- absorption maximum (in CCCO): 577 nm
- absorption maximum (in CCO): 568 nm
- absorption maximum (in CN(C)C=O): 621 nm
- absorption maximum (in CN(C)P(=O)(N(C)C)N(C)C): 629 nm
- absorption maximum (in CO): 537 nm
- absorption maximum (in CS(C)=O): 619 nm

Continued, values first:

- absorption maximum (in C1CCCCC1): 397 nm
- absorption maximum (in CO): 397 nm
- absorption maximum (in CS(C)=O): 397 nm
- absorption maximum (in ClC(Cl)Cl): 399 nm
- absorption maximum (in c1ccccc1): 397 nm
Structure (SMILES): CCC1=C(C)C(=O)n2c1cc1c(c(C)c(C(=O)OCC(C)C)n1CC(C)C)c2=O

- absorption maximum (in CC#N): 408 nm
Structure (SMILES): Oc1ccc2ccccc2c1/C=N/CC/N=C/c1c(O)ccc2ccccc12

- absorption maximum (in CC#N): 384 nm
- absorption maximum (in ClCCl): 386 nm
Structure (SMILES): COc1ccc(-c2cc3c(s2)c(-c2ccccc2)cc(=O)n3C)cc1

- absorption maximum (in ClC(Cl)Cl): 301 nm
Structure (SMILES): CCCCn1c2ccc(-c3ccc(C(F)(F)F)cc3)cc2c2ccc3c4cc(-c5ccc(C(F)(F)F)cc5)ccc4n(CCCC)c3c21

- absorption maximum (in C1CCCCC1): 459 nm
Structure (SMILES): C[Si](C)(C)C#Cc1ccc2c3cccc4cccc(c5cccc1c52)c43

- absorption maximum (in C1CCOC1): 396 nm
Structure (SMILES): CC(C)(C)c1ccc(-c2cc3cc4c(cc(-c5ccc(C(C)(C)C)cc5)p4-c4ccccc4)cc3p2-c2ccccc2)cc1 (stereo not drawn)

- absorption maximum (in CC#N): 365 nm
Structure (SMILES): c1ccc(-c2nc(-c3ccc(-c4cccs4)s3)[nH]c2-c2ccccc2)cc1

- absorption maximum (in ClCCl): 332 nm
Structure (SMILES): COc1cc(-c2cnc(-c3ccncc3)o2)cc(OC)c1OC

- absorption maximum (in ClCCl): 410 nm
Structure (SMILES): CCN(CC)c1ccc2c(c1)oc(=O)c1c(C)nc3c(c(-c4ccccc4)nn3-c3ccccc3)c12

- absorption maximum (in C1CCCCC1): 332 nm
Structure (SMILES): CCC(C)(C)c1ccc2c(c1)C(CC)(CC)c1cc(-c3ccc(-c4ccc5c(c4)C(CC)(CC)c4cc(C(C)(C)CC)ccc4-5)cc3)ccc1-2

- absorption maximum (in CC#N): 350 nm
Structure (SMILES): O=[N+]([O-])c1ccc(C#Cc2ccccc2C#Cc2ccc([N+](=O)[O-])cc2)cc1

- absorption maximum (in CO): 658 nm
- absorption maximum (in ClC(Cl)Cl): 677 nm
- absorption maximum (in ClCCl): 678 nm
Structure (SMILES): CC[n+]1c(C=C2C(=O)C(C=C3Sc4cc(Cl)ccc4N3C)=C2[O-])[se]c2ccccc21

- absorption maximum (in CO): 444 nm
Structure (SMILES): COc1ccc(/C=C/c2cc[n+]3ccc(/C=C/c4ccc(OC)cc4)cc3c2)cc1

- absorption maximum (in CC#N): 403 nm
Structure (SMILES): c1ccc2c(c1)ccc1ncc3ccc4cnccc4c3c12

- absorption maximum (in ClCCl): 334 nm
Structure (SMILES): c1ccc2c(-n3c(-c4ccc(-c5ccc(-c6nc7c8ccccc8c8ccccc8c7n6-c6cccc7ccccc67)c6ccccc56)c5ccccc45)nc4c5ccccc5c5ccccc5c43)cccc2c1

- absorption maximum (in ClCCl): 421 nm
Structure (SMILES): CC(C)(C)c1ccc(C#Cc2nc(C#Cc3ccc(C(C)(C)C)cc3)c(C#Cc3ccc(C(C)(C)C)cc3)c(C#Cc3ccc(C(C)(C)C)cc3)c2C#Cc2ccc(C(C)(C)C)cc2)cc1

- absorption maximum (in CS(C)=O): 566 nm
Structure (SMILES): CCCCN1/C(=C/C=C/C2=[N+](C)c3ccccc3C2(C)C)C(C)(C)c2cc(OC)ccc21

- absorption maximum (in CC#N): 420 nm
Structure (SMILES): Oc1ccc2ccccc2c1/C=N/c1cc2nc3ccccc3nc2cc1/N=C/c1c(O)ccc2ccccc12

- absorption maximum (in CC#N): 377 nm
Structure (SMILES): COc1ccc(-c2csc(/C(C#N)=C/c3ccc(Cl)cc3Cl)n2)cc1

- absorption maximum (in ClC(Cl)Cl): 377 nm
Structure (SMILES): CCCCC1(CCCC)c2ccccc2-c2ccc(-c3c4c(nc5ccccc35)-c3cc5c(cc3CC4)-c3nc4ccccc4c(-c4ccc6c(c4)C(CCCC)(CCCC)c4ccccc4-6)c3CC5)cc21

- absorption maximum (in ClCCl): 307 nm
Structure (SMILES): C[Si](c1ccc(-c2nc3ccccc3n2-c2ccccc2)cc1)(c1ccc(-c2nc3ccccc3n2-c2ccccc2)cc1)c1ccc(-c2nc3ccccc3n2-c2ccccc2)cc1

- absorption maximum (in CCCCCCC): 408 nm
Structure (SMILES): c1cc2c3c(cccc3c1)-c1c-2ccc2ccc3ccccc3c12

- absorption maximum (in ClCCl): 475 nm
Structure (SMILES): O=c1c2cccc3cccc(c32)c2nc3cccc4cccc(c43)n12

- absorption maximum (in ClCCl): 544 nm
Structure (SMILES): CCC(C)[Si](C#Cc1c2nc3c4ccccc4c(=O)c4ccccc4c3nc2c(C#C[Si](C(C)CC)(C(C)CC)C(C)CC)c2nc3c4ccccc4c(=O)c4ccccc4c3nc12)(C(C)CC)C(C)CC (stereo not drawn)

- absorption maximum (in C1CCOC1): 417 nm
Structure (SMILES): Cc1cc(C)c([B-]2(c3c(C)cc(C)cc3C)[O+]=P(c3ccccc3)(c3ccccc3)c3cc(C#Cc4ccccc4)sc3-c3sc(C#Cc4ccccc4)cc32)c(C)c1

- absorption maximum (in ClCCl): 458 nm
Structure (SMILES): C[Si]1(C)c2cc(-c3ccc(-c4cccs4)s3)ccc2C=Cc2ccc(-c3ccc(-c4cccs4)s3)cc21
